A word on the IC50: it is the concentration needed to halve the response being measured.

Molecules are shown by their SMILES.

The values that follow come from US12617773B2, “Azetidin-3-ylmethanol derivatives as CCR6 receptor modulators” (Idorsia Pharmaceuticals Ltd, priority 2020, dated 2026).

This test concerns the target T1, human CCR6 (Homo sapiens, UniProt P51684).
T1 construct: expressed in transfected cells; host or cells: HEK-293
T1 sequence (P51684 1-374): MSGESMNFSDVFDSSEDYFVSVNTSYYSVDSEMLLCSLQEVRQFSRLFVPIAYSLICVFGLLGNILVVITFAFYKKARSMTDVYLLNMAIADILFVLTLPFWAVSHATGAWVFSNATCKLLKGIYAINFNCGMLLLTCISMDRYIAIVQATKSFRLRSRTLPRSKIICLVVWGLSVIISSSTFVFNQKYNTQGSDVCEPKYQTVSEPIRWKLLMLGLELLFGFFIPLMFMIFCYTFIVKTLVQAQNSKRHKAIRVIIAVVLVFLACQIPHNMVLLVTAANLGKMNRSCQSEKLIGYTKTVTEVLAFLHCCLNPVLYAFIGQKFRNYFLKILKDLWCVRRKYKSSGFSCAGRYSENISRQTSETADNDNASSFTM
The test can be described thus: FLIPR assay (inhibition of CCL20-induced calcium signal). It is filed as cell-based. The settings on record: HEK-293 cells expressing human CCR6; mean values where determined several times; read-out: FLIPR IC50. In short, it runs like this:
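Dye-loaded HEK-293 cells expressing human CCR6 were preincubated with compound for 30 min at room temperature in the dark, then challenged with 10 nM CCL20 (final). Fluorescence was tracked on FLIPR, and baseline-subtracted peak emission over base after agonist addition gave inhibition dose-response curves for IC50.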
Regarding `CC(C)c1ccc([C@](O)(c2cncc(-c3nc(CC(C)(C)O)no3)c2)C2(C)CN(C)C2)cc1` [Example 102], the concentration for half-maximal inhibition (IC50) was found to be 0.103 µM. Turning to `CC(C)c1ccc([C@](O)(c2cncc(-c3noc(CS(C)(=O)=O)n3)c2)C2(C)CN(C)C2)cc1` [Example 103, (R)-(1,3-Dimethyl-azetidin-3-yl)-(4-isopropyl-phenyl)-[5-(5-methanesulfonylmethyl-[1,2,4]oxadiazol-3-yl)-pyridin-3-yl]-methanol], the IC50 turned out to be 0.11 µM. The same measure for `COCCc1nc(-c2cncc([C@@](O)(c3ccc(C(C)C)cc3)C3(C)CN(C)C3)c2)no1` [Example 104]: 0.0422 µM. The same measure for `COCc1nc(-c2cncc([C@@](O)(c3ccc(C(C)C)cc3)C3(C)CN(C)C3)c2)no1` [Example 105]: 0.0434 µM; for `CC(C)c1ccc([C@](O)(c2cncc(-c3noc(C4CCOC4)n3)c2)C2(C)CN(C)C2)cc1` (some centres unmarked) [Example 106]: 0.0467 µM; for `CC(C)c1ccc([C@](O)(c2cncc(-c3noc(C4CCOCC4)n3)c2)C2(C)CN(C)C2)cc1` [Example 107]: 0.0543 µM.

Consider `CC(C)c1ccc([C@](O)(c2cncc(-c3noc(C4(O)CCCCC4)n3)c2)C2(C)CN(C)C2)cc1` [Example 108], for which the IC50 was 0.021 µM.

`CC(C)c1ccc([C@](O)(c2cncc(-c3noc(COC(C)(C)C)n3)c2)C2(C)CN(C)C2)cc1` [Example 109]: the 50% inhibitory concentration (IC50) came out at 0.0212 µM. The same measure for `CC(C)c1ccc([C@](O)(c2cncc(-c3noc(CC4CCOCC4)n3)c2)C2(C)CN(C)C2)cc1` [Example 110]: 0.0391 µM. The result for `CC(C)c1ccc([C@](O)(c2cncc(-c3noc(C4CCC(O)CC4)n3)c2)C2(C)CN(C)C2)cc1` (some centres unmarked) [Example 111] reads 0.043 µM; that for `CC(C)c1ccc([C@](O)(c2cncc(-c3noc(CC4(O)CCCCC4)n3)c2)C2(C)CN(C)C2)cc1` [Example 112], 0.0385 µM.

On to `COC1(c2nc(-c3cncc([C@@](O)(c4ccc(C(C)C)cc4)C4(C)CN(C)C4)c3)no2)CCC1` [Example 113], for which the 50% inhibitory concentration (IC50) was 0.0298 µM. The same measure for `CC(C)c1ccc([C@](O)(c2cncc(-c3noc(C4CC45CCOCC5)n3)c2)C2(C)CN(C)C2)cc1` (some centres unmarked) [Example 114]: 0.038 µM. The same measure for `CC(C)c1ccc([C@](O)(c2cncc(-c3noc(C4CCCOC4)n3)c2)C2(C)CN(C)C2)cc1` (some centres unmarked) [Example 115]: 0.041 µM; for `CC(C)c1ccc([C@](O)(c2cncc(-c3noc(CC4CCCO4)n3)c2)C2(C)CN(C)C2)cc1` (some centres unmarked) [Example 116]: 0.0408 µM. The result for `CC(C)c1ccc([C@](O)(c2cncc(-c3noc([C@@](C)(O)C(F)(F)F)n3)c2)C2(C)CN(C)C2)cc1` [Example 117] reads 0.0201 µM; that for `COC(C)(C)c1nc(-c2cncc([C@@](O)(c3ccc(C(C)C)cc3)C3(C)CN(C)C3)c2)no1` [Example 118], 0.0431 µM.

For the molecule `CC(C)c1ccc([C@](O)(c2cncc(-c3noc([C@H](O)C4CCCCC4)n3)c2)C2(C)CN(C)C2)cc1` [Example 119], the IC50 turned out to be 0.0205 µM. The same measure for `CC(C)c1ccc([C@](O)(c2cncc(-c3noc(C4(O)CC4)n3)c2)C2(C)CN(C)C2)cc1` [Example 120]: 0.0592 µM. The result for `CC(C)c1ccc([C@](O)(c2cncc(-c3noc(C(C)(C)O)n3)c2)C2(C)CN(C)C2)cc1` [Example 121] reads 0.0577 µM. The result for `CC(C)c1ccc([C@](O)(c2cncc(-c3noc(C4(O)CCCC4)n3)c2)C2(C)CN(C)C2)cc1` [Example 122] reads 0.0421 µM; that for `CC(C)c1ccc([C@](O)(c2cncc(-c3noc(C4CC(O)C4)n3)c2)C2(C)CN(C)C2)cc1` (some centres unmarked) [Example 123], 0.0469 µM; that for `CC(C)c1ccc([C@](O)(c2cncc(-c3noc(C4(F)CCOCC4)n3)c2)C2(C)CN(C)C2)cc1` [Example 124], 0.0359 µM.

For `CC(C)c1ccc([C@](O)(c2cncc(-c3noc([C@H]4C[C@@H](C)O[C@@H](C)C4)n3)c2)C2(C)CN(C)C2)cc1` [Example 125], the IC50 was 0.0469 µM. On to `CC(C)c1ccc([C@](O)(c2cncc(-c3noc(COC4CCOCC4)n3)c2)C2(C)CN(C)C2)cc1` [Example 126], for which the IC50 was found to be 0.0849 µM. Turning to `CC(C)c1ccc([C@](O)(c2cncc(-c3noc(C(C)(C)C4CCOCC4)n3)c2)C2(C)CN(C)C2)cc1` [Example 127], the half-inhibitory concentration (IC50) amounted to 0.0324 µM. On to `CC(C)c1ccc([C@](O)(c2cncc(-c3noc(CCC4CCOCC4)n3)c2)C2(C)CN(C)C2)cc1` [Example 128], for which the IC50 was determined as 0.0403 µM. Turning to `CC(C)c1ccc([C@](O)(c2cncc(-c3noc(C4(O)CCC4)n3)c2)C2(C)CN(C)C2)cc1` [Example 129], the concentration for half-maximal inhibition (IC50) was 0.0359 µM.

On to `CC(C)c1ccc([C@](O)(c2cncc(-c3noc(CC(C)(C)O)n3)c2)C2(C)CN(C)C2)cc1` [Example 130], for which the IC50 was determined as 0.0747 µM.

`CC(C)c1ccc([C@](O)(c2cncc(-c3noc(C4CC5CCC4O5)n3)c2)C2(C)CN(C)C2)cc1` (some centres unmarked) [Example 131]: the IC50 worked out at 0.0608 µM. The result for `CC(C)c1ccc([C@](O)(c2cncc(-c3noc(COC4(C)CCOCC4)n3)c2)C2(C)CN(C)C2)cc1` [Example 132] reads 0.0501 µM.

On to `CC(C)c1ccc([C@](O)(c2cncc(-c3noc(C4COC4)n3)c2)C2(C)CN(C)C2)cc1` [Example 133], for which the IC50 is 0.0745 µM. The same measure for `COCC(C)(C)c1nc(-c2cncc([C@@](O)(c3ccc(C(C)C)cc3)C3(C)CN(C)C3)c2)no1` [Example 134, (R)-(1,3-Dimethyl-azetidin-3-yl)-(4-isopropyl-phenyl)-{5-[5-(2-methoxy-1,1-dimethyl-ethyl)-[1,2,4]oxadiazol-3-yl]-pyridin-3-yl}-methanol]: 0.062 µM; for `CC(C)c1ccc([C@](O)(c2cncc(-c3noc(C(C)(C)CO)n3)c2)C2(C)CN(C)C2)cc1` [Example 135]: 0.074 µM; for `COC(C)(C)Cc1nc(-c2cncc([C@@](O)(c3ccc(C(C)C)cc3)C3(C)CN(C)C3)c2)no1` [Example 136]: 0.123 µM.

With `CC(C)c1ccc([C@](O)(c2cncc(-c3noc(CC4(O)CCC4)n3)c2)C2(C)CN(C)C2)cc1` [Example 137], the concentration for half-maximal inhibition (IC50) worked out at 0.0603 µM. The result for `COCC1(Cc2nc(-c3cncc([C@@](O)(c4ccc(C(C)C)cc4)C4(C)CN(C)C4)c3)no2)CC1` [Example 138] reads 0.0458 µM; that for `CC(C)c1ccc([C@](O)(c2cncc(-c3noc(CCn4cccn4)n3)c2)C2(C)CN(C)C2)cc1` [Example 139, (R)-(1,3-Dimethyl-azetidin-3-yl)-(4-isopropyl-phenyl)-{5-[5-(2-pyrazol-1-yl-ethyl)-[1,2,4]oxadiazol-3-yl]-pyridin-3-yl}-methanol], 0.0666 µM. The result for `[2H]C([2H])([2H])C(=O)NCCc1nc(-c2cncc([C@@](O)(c3ccc(C(C)C)cc3)C3(C)CN(C)C3)c2)no1` [Example 140, (R)—N-(2-(3-(5-((1,3-dimethylazetidin-3-yl)(hydroxy)(4-isopropylphenyl)methyl)pyridin-3-yl)-1,2,4-oxadiazol-5-yl)ethyl)acetamide-2,2,2-d3] reads 0.681 µM; that for `[2H]C([2H])([2H])C(=O)NC(C)(C)Cc1nc(-c2cncc([C@@](O)(c3ccc(C(C)C)cc3)C3(C)CN(C)C3)c2)no1` [Example 141], 0.211 µM. The same measure for `CC(C)c1ccc([C@](O)(c2cncc(-c3noc(C4CCN(C(=O)CO)CC4)n3)c2)C2(C)CN(C)C2)cc1` [Example 142]: 0.274 µM; for `[2H]C([2H])([2H])C(=O)N1CCC(c2nc(-c3cncc([C@@](O)(c4ccc(C(C)C)cc4)C4(C)CN(C)C4)c3)no2)CC1` [Example 143]: 0.188 µM; for `CC(C)c1ccc([C@](O)(c2cncc(-c3noc(CCN(C)C(=O)CO)n3)c2)C2(C)CN(C)C2)cc1` [Example 144, N-[2-(3-{5-[(R)-(1,3-Dimethyl-azetidin-3-yl)-hydroxy-(4-isopropyl-phenyl)-methyl]-pyridin-3-yl}-[1,2,4]oxadiazol-5-yl)-ethyl]-2-hydroxy-N-methyl-acetamide]: 0.376 µM. In the case of `[2H]C([2H])([2H])C(=O)N(C)CCc1nc(-c2cncc([C@@](O)(c3ccc(C(C)C)cc3)C3(C)CN(C)C3)c2)no1` [Example 145, (R)—N-(2-(3-(5-((1,3-dimethylazetidin-3-yl)(hydroxy)(4-isopropylphenyl)methyl)pyridin-3-yl)-1,2,4-oxadiazol-5-yl)-ethyl)-N-methylacetamide-d3], the IC50 is 0.274 µM. Regarding `COc1ccc(C(O)(c2ccc(OC(F)(F)F)cc2)C2(C)CN(C)C2)cn1` (centres unmarked) [Example 146, (1,3-Dimethyl-azetidin-3-yl)-(6-methoxy-pyridin-3-yl)-(4-trifluoromethoxy-phenyl)-methanol], the IC50 amounted to 0.309 µM. The same measure for `CN1CC(C)(C(O)(c2ccc(OC(F)(F)F)cc2)c2ccc(Oc3ccccc3)nc2)C1` (centres unmarked) [Example 147]: 0.0635 µM; for `CCCc1ccc(C(O)(c2cncc(N3CCCC3)c2)C2(C)CN(C)C2)cc1` (centres unmarked) [Example 150, (1,3-Dimethyl-azetidin-3-yl)-(4-propyl-phenyl)-(5-pyrrolidin-1-yl-pyridin-3-yl)-methanol]: 0.0358 µM; for `COc1ccc(C(O)(c2cncc(N3CCCC3)c2)C2(C)CN(C)C2)cc1` (centres unmarked) [Example 151]: 0.336 µM. The result for `CCc1ccc(C(O)(c2cncc(N3CCCC3)c2)C2(C)CN(C)C2)cc1` (centres unmarked) [Example 152] reads 0.0602 µM.

`CN1CC(C)(C(O)(c2ccccc2)c2cncc(N3CCCC3)c2)C1` (centres unmarked) [Example 153]: the IC50 turned out to be 0.214 µM.
